One assay concerns C57BL/6J mice. Description: Glucokinase activator in vivo screen, blood glucose after oral gavage in lean and diet induced obese mice. The settings on record: Mus musculus, C57B6 mice, read-out: % gluc lowering @ 2 H; for change in vivo at 25 mg/kg: vs control at 2 hours post 25 mg/kg oral dose; for change in vivo at 50 mg/kg: vs control at 2 hours post 50 mg/kg oral dose. How it is done:
Glucokinase Activator in vivo Screen Protocol in Lean and Diet Induced Obese Mice: Lean or Diet-Induced Obese (DIO) C57BL/6J mice were orally dosed via gavage with Glucokinase (GK) activator following a two hour fasting period. Blood glucose determinations were made at various (e.g. 0, 1, 2, 4 and 8 hours post-oral gavage) times during the study.
C57Bl/6J mice were obtained from Jackson Laboratory (Bar Harbor, Me.) and were maintained in a light-dark cycle with lights on from 0600-1800 hr. For studies in lean mice, the mice were received at age ten weeks and given ad libitum access to control diet (LabDiet 5001 chow, PMI Nutrition, Brentwood, Mo.), and were at least age 11 weeks at the time of study. For studies in the DIO model, the mice were received at age five weeks and given ad libitum access to Bio-Sery F3282 High Fat Diet (Frenchtown, N.J.), and were at least age 16 weeks at the time of study. The experiments were conducted during the light phase of the light-dark cycle. Mice (n=6) are weighed and fasted for a two hour period prior to oral treatment. GK activators are formulated in Gelucire vehicle (Ethanol:Gelucire44/14:PEG400q.s. 4:66:30 v/w/v. For studies in lean mice, the mice were dosed orally with 5.04 per gram of body weight (i.e. 5 ml/kg×10.0 mg/ml formulation to equal a 50 mg/kg dose). For studies in DIO mice, the mice were dosed orally with 5.04 per gram of body weight (i.e. 5.0 ml/kg×5 mg/ml formulation to equal a 25 mg/kg dose). Immediately prior to dosing, a pre-dose (time zero) blood glucose reading was acquired by snipping off a small portion of the animal's tail and collecting […] blood into a heparinized capillary tube for analysis. Following GK activator administration, additional blood glucose readings were taken at various time points post dose from the same tail wound. Results were interpreted by comparing the mean blood glucose values of vehicle treated mice with GK activator treated mice over the study period.
The Table below provides data for % glucose lowering of a representative number of compounds of the present invention vs control at 2 hours post 25 or 50 mg/kg dose in C57B6 mice: […]

Assay [1] addresses T1, Recombinant human liver GK1 (GST-GK) (Homo sapiens, UniProt P35557).
T1 construct: made in house; host or cells: E. coli
T1 sequence (P35557 1-466 isoform P35557-2): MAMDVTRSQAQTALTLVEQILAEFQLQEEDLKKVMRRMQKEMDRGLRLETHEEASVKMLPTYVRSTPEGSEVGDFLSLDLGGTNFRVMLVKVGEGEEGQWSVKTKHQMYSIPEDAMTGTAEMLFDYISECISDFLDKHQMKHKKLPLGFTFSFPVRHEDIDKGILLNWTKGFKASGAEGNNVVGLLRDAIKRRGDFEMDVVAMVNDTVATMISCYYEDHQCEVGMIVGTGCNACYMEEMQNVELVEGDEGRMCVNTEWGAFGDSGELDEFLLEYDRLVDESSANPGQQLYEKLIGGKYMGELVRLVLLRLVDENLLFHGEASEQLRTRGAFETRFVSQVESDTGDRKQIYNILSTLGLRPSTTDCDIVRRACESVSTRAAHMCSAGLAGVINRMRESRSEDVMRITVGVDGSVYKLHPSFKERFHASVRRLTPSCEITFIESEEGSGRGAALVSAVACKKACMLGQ
In words: In vitro glucokinase activity assay (G6PDH-coupled, NADH, OD340). The class given is biochemical. The settings on record: concentration of activator that produced a 50% increase in the activity of GK; 5 mM D-glucose, 30° C. In outline: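 GST-fused human liver GK1 from E. coli, run at 30° C. in pH 7.1 HEPES with 5 mM glucose, 1 mM ATP and 10% DMSO, coupled via G6PDH to NADH. OD340 rate measured after enzyme start; SC1.5 is the activator concentration raising activity 50% over DMSO control.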

Turning to `COCCOc1cnc2[nH]c([C@H](CC3CCCC3)c3ccc(S(C)(=O)=O)cc3)cc2c1` (single isomer, unassigned) [Example 16], in the assay on C57BL/6J mice, the change in vivo at 25 mg/kg was -31.3%. In addition, the SC1.5 in assay [1] was determined as 0.21 µM. The like results for `CC(C)Oc1cnc2[nH]c([C@H](CC3CCCC3)c3ccc(S(C)(=O)=O)cc3)cc2c1` (single isomer, unassigned) [Example 19] were, in that order, -14.8% and 0.414 µM. The like results for `COc1cnc2[nH]c(C(CC3CCCO3)c3ccc(S(C)(=O)=O)cc3)cc2c1` (single isomer, unassigned) [Example 22, 2-[1-(4-Methanesulfonyl-phenyl)-2-(tetrahydro-furan-2-yl)-ethyl]-5-methoxy-1H-pyrrolo[2,3-b]pyridine] were, in that order, -6.3% and 2.5 µM. The matching figures for `COc1cnc2[nH]c([C@H](CC3CCOCC3)c3ccc(S(C)(=O)=O)cc3)cc2c1` (single isomer, unassigned) [Example 32]: -23.4% and 1.1 µM. For the compound `COc1cnc2[nH]c([C@H](CC3CCOCC3)c3ccc(C(F)(F)F)cc3)cc2c1` (single isomer, unassigned) [Example 34], the change in vivo at 25 mg/kg in the assay with C57BL/6J mice was -10.7%. Also, in assay [1], the SC1.5 was found to be 0.958 µM. The like results for `COCc1cnc2[nH]c([C@H](CC3CCCC3)c3ccc(S(C)(=O)=O)cc3)cc2c1` (single isomer, unassigned) [Example 42] were, in that order, -10.3% and 0.903 µM.

Take `CS(=O)(=O)c1ccc(C(CC2CCCCO2)c2cc3cccnc3[nH]2)cc1` (single isomer, unassigned) [Example 60, 2-[1-(4-Methanesulfonyl-phenyl)-2-(tetrahydro-pyran-2-yl)-ethyl-]-1H-pyrrolo[2,3-b]pyridine]: in the assay on C57BL/6J mice, the change in vivo at 25 mg/kg was -29.9%. Also, in assay [1], the SC1.5 came to 0.451 µM.

Consider `CS(=O)(=O)c1ccc([C@@H](CC2CCOCC2)c2cc3cccnc3[nH]2)cc1` (single isomer, unassigned) [Example 67], for which the change in vivo at 25 mg/kg with C57BL/6J mice was -43.6%. Further, the SC1.5 in assay [1] stood at 0.505 µM. As to `CC(C)(O)c1ccc([C@@H](CC2CCCC2)c2cc3cccnc3[nH]2)cc1` (single isomer, unassigned) [Example 82], the change in vivo at 25 mg/kg with C57BL/6J mice was -42.7%. Besides, the SC1.5 in assay [1] came to 0.647 µM. On to `CS(=O)(=O)c1ccc([C@@H](CC2CCCC2)c2cc3cc(F)cnc3[nH]2)cc1` (single isomer, unassigned) [Example 118], for which the change in vivo at 25 mg/kg in the assay on C57BL/6J mice was -48.4%. Also, the SC1.5 in assay [1] stood at 0.05 µM. The like results for `CC(C)(O)c1ccc([C@@H](CC2CCCC2)c2cc3cc(F)cnc3[nH]2)cc1` (single isomer, unassigned) [Example 120] were, in that order, -52% and 0.241 µM. With `CS(=O)(=O)c1ccc([C@@H](CC2CCOCC2)c2cc3cc(F)cnc3[nH]2)cc1` (single isomer, unassigned) [Example 124], the change in vivo at 25 mg/kg in the assay with C57BL/6J mice was -35%. For the same compound, in assay [1], the SC1.5 came to 0.21 µM.

On to `CC(C)NC(=O)c1cnc2[nH]c(C(CC3CCCC3)c3ccc(S(C)(=O)=O)cc3)cc2c1` (stereo not shown) [Example 3, 2-[2-Cyclopentyl-1-(4-methanesulfonyl-phenyl)-ethyl]-1H-pyrrolo[2,3-b]pyridin-5-carboxylic acid isopropylamide], for which the change in vivo at 50 mg/kg with C57BL/6J mice is -5.6%. Further, the SC1.5 in assay [1] worked out at 1.9 µM. The like results for `CC(C)S(=O)(=O)c1ccc(C(CC2CCCC2)c2cc3cccnc3[nH]2)cc1` (stereo not shown) [Example 69] were, in that order, -40.3% and 0.387 µM. The like results for `CC(C)(O)c1ccc(C(CC2CCCC2)c2cc3cccnc3[nH]2)cc1F` (stereo not shown) [Example 95, 2-{4-[2-Cyclopentyl-1-(1H-pyrrolo[2,3-b]pyridin-2-yl)-ethyl]-2-fluoro-phenyl}-propan-2-ol] were, in that order, -49.4% and 0.379 µM.

For the compound `CS(=O)(=O)c1ccc(C(CC2CCCC2)c2cc3cccnc3[nH]2)cn1` (stereo not shown) [Example 109, 2-[2-Cyclopentyl-1-(6-methanesulfonyl-pyridin-3-yl)-ethyl]-1H-pyrrolo[2,3-b]pyridine], the change in vivo at 50 mg/kg in the assay on C57BL/6J mice is -31.6%. In assay [1], the SC1.5 is 2.1 µM.

Take `CS(=O)(=O)c1ccc(/C(=C\C2CCOCC2)c2cc3cc(F)cnc3[nH]2)cc1` [Example 122, 5-Fluoro-2-[(E)-1-(4-methanesulfonyl-phenyl)-2-(tetrahydro-pyran-4-yl)-vinyl]-1H-pyrrolo[2,3-b]pyridine]: the change in vivo at 25 mg/kg with C57BL/6J mice is -59.4%. Moreover, in assay [1], the SC1.5 came to 0.051 µM.

With `CCOc1cccc(C(CC(C)C)c2cc3cccnc3[nH]2)c1` (stereo not shown) [Example 133, 2-(1-(3-Ethoxy-phenyl)-3-methyl-butyl)-1H-pyrrolo[2,3-b]pyridine], the SC1.5 in assay [1] was 25.0 µM.

Regarding `COc1cccc(C(CC(C)C)c2cc3cccnc3[nH]2)c1` (stereo not shown) [Example 134, 2-(1-(3-Methoxy-phenyl)-3-methyl-butyl)-1H-pyrrolo[2,3-b]pyridine], the SC1.5 in assay [1] stood at 12.9 µM. The same measure, in the same setting: in the case of `CC(=O)c1cccc(C(CC(C)C)c2cc3cccnc3[nH]2)c1` (stereo not shown) [Example 135, 1-{3-[3-Methyl-1-(1H-pyrrolo[2,3-b]pyridin-2-yl)-butyl]-phenyl}-ethanone] it was 9.6 µM; in that of `CC(C)CC(c1cccc(N(C)C)c1)c1cc2cccnc2[nH]1` (stereo not shown) [Example 136, N,N-Dimethyl-3-(3-methyl-1-(1H-pyrrolo[2,3-b]pyridine-2-yl)butyl)benzenamine], 14.3 µM. Turning to `CC(C)CC(c1cccc(-n2cccn2)c1)c1cc2cccnc2[nH]1` (stereo not shown) [Example 137, 2-(1-(3-(1H-Pyrazol-1-yl)phenyl)-3-methylbutyl)-1H-pyrrolo[2,3-b]pyridine], the SC1.5 in assay [1] was determined as 15.2 µM. Consider `CS(=O)(=O)c1ccc(C(CC2CCCC2)c2cc3cccnc3[nH]2)cc1` (stereo not shown) [Example 138, 2-[2-Cyclopentyl-1-(4-methanesulfonyl-phenyl)-ethyl]-1H-pyrrolo[2,3-b]pyridine], for which the change in vivo at 50 mg/kg in the assay with C57BL/6J mice is -50.4%. For the same compound, the SC1.5 in assay [1] is 0.236 µM. The matching figures for `Clc1ccc(C(CC2CCCC2)c2cc3cccnc3[nH]2)cc1Cl` (stereo not shown) [Example 139, 2-[2-Cyclopentyl-1-(3,4-dichloro-phenyl)-ethyl]-1H-pyrrolo[2,3-b]pyridine]: 25.4% and 1.1 µM.

The record behind these values is patent US8222416B2, “Azaindole glucokinase activators” (Hoffmann-La Roche Inc., priority 2009, dated 2012).
